Source: ChEMBL document CHEMBL1153271, “3,4-Diamino-1,2,5-thiadiazole as potent and selective CXCR2 antagonists” (Bioorg Med Chem Lett, 2009)

How the values were obtained:
[1] = biological target: T1, C-X-C chemokine receptor type 2 (Homo sapiens, UniProt P25025); test: Displacement of IL8 from CXCR2 receptor
T1 sequence (P25025 whole entry): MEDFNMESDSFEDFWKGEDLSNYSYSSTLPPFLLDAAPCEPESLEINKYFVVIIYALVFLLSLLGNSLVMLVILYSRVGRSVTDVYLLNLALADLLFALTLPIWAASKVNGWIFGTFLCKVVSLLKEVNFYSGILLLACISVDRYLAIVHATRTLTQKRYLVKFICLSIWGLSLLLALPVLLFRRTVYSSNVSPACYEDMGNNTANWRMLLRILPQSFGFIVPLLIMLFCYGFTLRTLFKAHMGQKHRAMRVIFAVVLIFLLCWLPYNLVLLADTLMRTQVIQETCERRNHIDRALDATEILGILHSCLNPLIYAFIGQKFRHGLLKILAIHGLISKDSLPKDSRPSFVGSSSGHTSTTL

[2] = biological target: T2, C-X-C chemokine receptor type 1 (Homo sapiens, UniProt P25024); test: Displacement of IL8 from CXCR1 receptor
T2 sequence (P25024 whole entry): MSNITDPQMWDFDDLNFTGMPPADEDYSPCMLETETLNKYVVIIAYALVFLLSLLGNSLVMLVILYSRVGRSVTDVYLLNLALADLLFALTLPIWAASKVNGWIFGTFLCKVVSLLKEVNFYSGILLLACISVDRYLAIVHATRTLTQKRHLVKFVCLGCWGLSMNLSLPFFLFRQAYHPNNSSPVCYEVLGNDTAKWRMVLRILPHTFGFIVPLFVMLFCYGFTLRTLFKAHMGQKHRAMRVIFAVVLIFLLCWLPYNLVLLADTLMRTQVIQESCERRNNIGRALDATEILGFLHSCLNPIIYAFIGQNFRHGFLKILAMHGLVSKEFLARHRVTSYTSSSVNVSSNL

[3] = biological target: T1, C-X-C chemokine receptor type 2; test: Displacement of [125I]CXCL1 from CXCR2 receptor in human PMN assessed as myeloperoxidase release
[4] = biological target: T2, C-X-C chemokine receptor type 1; test: Displacement of [125I]CXCL8 from CXCR1 receptor in human PMN assessed as myeloperoxidase release

Ki [1] | Ki [2] | IC50 [3] | IC50 [4] | Structure (SMILES)
4.1 µM |  |  |  | CC[C@@H](Nc1nsnc1Nc1cccc(C(=O)N(C)C)c1O)c1cc(F)cc(F)c1
10 µM | 0.053 µM |  |  | Cc1ccc([C@H](Nc2nsnc2Nc2cccc(C(=O)N(C)C)c2O)C(F)(F)F)o1
3 µM |  |  |  | CC[C@@H](Nc1nsnc1Nc1cccc(C(=O)N(C)C)c1O)c1ccc(C)o1
0.091 µM |  | 0.021 µM |  | Cc1ccc([C@H](Nc2nsnc2Nc2cccc(C(=O)N(C)C)c2O)C(C)(C)C)o1
0.381 µM |  |  |  | CN(C)C(=O)c1cccc(Nc2nsnc2N[C@@H](c2ccco2)C(C)(C)C)c1O
2.28 µM |  |  |  | CC[C@@H](Nc1nsnc1Nc1cccc(C(=O)N(C)C)c1O)c1cc(C)co1
2.4 µM | 0.015 µM | 0.036 µM | 3.91 µM | Cc1ccc([C@H](Nc2nsnc2Nc2cccc(C(=O)N(C)C)c2O)C(C)C)o1
5.11 µM |  |  |  | CC[C@@H](Nc1nsnc1Nc1cccc(C(=O)N(C)C)c1O)c1ccccc1

The remaining lines, values behind:

Structure (SMILES) | Ki [1] | Ki [2] | IC50 [3] | IC50 [4]
CN(C)C(=O)c1cccc(Nc2nsnc2N[C@@H](c2ccc3c(c2)CCC3)C(C)(C)C)c1O | 10 µM |  |  | 
CC(C)c1coc([C@H](Nc2nsnc2Nc2cccc(C(=O)N(C)CCC#N)c2O)C(C)(C)C)c1 | 0.079 µM |  |  | 
CN(C)C(=O)c1cccc(Nc2nsnc2N[C@@H](c2cc3ccccc3o2)C(C)(C)C)c1O | 2.36 µM |  |  | 
CN(C)C(=O)c1cccc(Nc2nsnc2N[C@@H](c2ccc3c(c2)OCCO3)C(C)(C)C)c1O | 10 µM |  |  | 
CN(C)C(=O)c1cccc(Nc2nsnc2N[C@@H](c2ccccc2)C2CC2)c1O | 2.03 µM |  |  | 
Cc1ccc([C@H](Nc2nsnc2Nc2cccc(C(=O)N(C)C)c2O)C(C)C)s1 | 1.3 µM |  |  | 
Cc1ccc([C@H](Nc2nsnc2Nc2ccc(C(F)(F)F)c(C(=O)N(C)C)c2O)C(C)(C)C)o1 | 0.168 µM | 0.038 µM |  | 
CN(C)C(=O)c1cccc(Nc2nsnc2N[C@@H](c2cccc(F)c2)C(C)(C)C)c1O | 1.3 µM | 0.078 µM |  | 
CN(CCC#N)C(=O)c1cccc(Nc2nsnc2N[C@@H](c2ccco2)C(C)(C)C)c1O | 0.044 µM |  |  | 
CC[C@@H](Nc1nsnc1Nc1ccc(C(F)(F)F)c(C(=O)N(C)C)c1O)c1ccc(C)o1 | 0.749 µM |  |  | 
CN(C)C(=O)c1cccc(Nc2nsnc2NC(c2ccccc2)C(F)(F)F)c1O (stereo not drawn) | 4.3 µM | 0.036 µM |  | 
Cc1ccc([C@H](Nc2nsnc2Nc2cccc(C(=O)N(C)CCC#N)c2O)C(C)(C)C)o1 | 0.114 µM | 0.013 µM |  | 
Cc1ccc([C@H](Nc2nsnc2Nc2cccc(C(=O)N3CCOCC3)c2O)C(C)(C)C)o1 | 1.27 µM |  |  | 
C[C@H](Nc1nsnc1Nc1cccc(C(=O)N(C)C)c1O)C(C)(C)C | 10 µM |  |  | 
CN(C)C(=O)c1cccc(Nc2nsnc2N[C@@H](c2ccc3c(c2)OCO3)C(C)(C)C)c1O | 0.33 µM | 0.052 µM |  | 
